Reference: paper PMC8353271, “Functional Characterization of Olfactory Receptors in the Thyroid Gland” (Frontiers in Physiology, 2021)

Target: T1, OR2H2 (Homo sapiens, UniProt O95918)
T1 sequence (O95918 1-312): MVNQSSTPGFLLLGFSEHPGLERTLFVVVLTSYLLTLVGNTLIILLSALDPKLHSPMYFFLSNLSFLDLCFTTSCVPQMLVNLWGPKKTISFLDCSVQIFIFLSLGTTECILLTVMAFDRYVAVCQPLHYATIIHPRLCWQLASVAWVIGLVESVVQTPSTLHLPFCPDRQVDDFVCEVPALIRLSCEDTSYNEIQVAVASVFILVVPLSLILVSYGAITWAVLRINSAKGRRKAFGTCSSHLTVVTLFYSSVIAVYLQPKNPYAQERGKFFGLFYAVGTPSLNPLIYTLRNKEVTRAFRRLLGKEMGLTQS
Assay: Fura-2 Ca2+ imaging in Nthy-ori […]-1 cells (endogenous receptor), response reduced by CRISPR/Cas9 OR2H2 knockout; cAMP assay
Format: cell-based

EC50: 366 µM
Substance: aldehyde 13-13
